Our source for the IC50 values is ChEMBL document CHEMBL4371018, “Macrocyclic Trichothecene Mycotoxins from a Deadly Poisonous Mushroom, Podostroma cornu-damae” (J Nat Prod, 2019).

Usually IC50 stands for the concentration at which inhibition is half-maximal.

Common to all, as to format: functional, cell-based
One experiment concerns BT-549. The experiment can be described thus: Cytotoxicity against human BT549 cells assessed as growth inhibition after 72 hrs by SRB assay. (The SRB assay estimates cell density from bound dye.)
Another experiment deals with MDA-MB-231. The experiment can be described thus: Cytotoxicity against human MDA-MB-231 cells assessed as growth inhibition after 72 hrs by SRB assay.
The test system of a further experiment is HCC70. Put plainly: Cytotoxicity against human HCC70 cells assessed as growth inhibition after 72 hrs by SRB assay.
A further experiment deals with MDA-MB-468. Put plainly: Cytotoxicity against human MDA-MB-468 cells assessed as growth inhibition after 72 hrs by SRB assay.

As for `CC1=C[C@H]2O[C@@H]3C[C@@H](OC(=O)/C=C\C=C\[C@@H](OCCC4=CC(=O)OC4)[C@@H](C)O)[C@](C)([C@@]2(CO)CC1)[C@@]31CO1`, the IC50 in the experiment on BT-549 (bt-549), in the experiment on MDA-MB-231 (mda-mb-231), with HCC70 (hcc70) and with MDA-MB-468 (mda-mb-468) was greater than 10000 nM each time.

With `CC1=C[C@H]2O[C@@H]3C[C@@H](OC(=O)/C=C\C=C\[C@]4([C@H](C)O)OCC/C(=C\C(=O)O)[C@@H]4O)[C@](C)([C@@]2(CO)CC1)[C@@]31CO1`, the IC50 was 1800 nM with BT-549 (bt-549), 3600 nM with MDA-MB-231 (mda-mb-231), 7700 nM in the experiment on HCC70 (hcc70) and greater than 10000 nM with MDA-MB-468 (mda-mb-468).

On to `CC1=C[C@H]2O[C@@H]3C[C@H]4OC(=O)/C=C\C=C\[C@]5([C@H](C)O)OCC/C(=C\C(=O)OC[C@@]2(CC1)[C@]4(C)[C@@]31CO1)[C@H]5O`, for which the IC50 came out at 1800 nM with BT-549 (bt-549), 2000 nM in the experiment with MDA-MB-231 (mda-mb-231), 2200 nM in the experiment with HCC70 (hcc70) and 3400 nM in the experiment on MDA-MB-468 (mda-mb-468).

In the case of `CC1=C[C@H]2O[C@@H]3C[C@H]4OC(=O)/C=C\C=C\[C@]5([C@H](C)O)OCC/C(=C\C(=O)OC[C@@]2(CC1)[C@]4(C)[C@@]31CO1)[C@@H]5O`, the concentration for half-maximal inhibition (IC50) is 0.3 nM with BT-549 (bt-549), 0.4 nM in the experiment on MDA-MB-231 (mda-mb-231), 1 nM in the experiment on HCC70 (hcc70) and 3 nM with MDA-MB-468 (mda-mb-468).

Regarding `CC1=C[C@H]2O[C@@H]3C[C@@H](OC(=O)/C=C\C=C\[C@@H](OCCC4=CC(=O)OC4)[C@@H](C)O)[C@](C)([C@@]2(COC(=O)/C=C(\C)CCO)CC1)[C@@]31CO1`, the IC50 came out at 4 nM in the experiment with BT-549 (bt-549), 20 nM in the experiment with MDA-MB-231 (mda-mb-231), 20 nM in the experiment with HCC70 (hcc70) and 80 nM with MDA-MB-468 (mda-mb-468).

As for `C/C1=C\C(=O)OC[C@@]23CC[C@](C)(O)[C@H]4C[C@@]5(O)[C@@H](C[C@@H](OC(=O)/C=C\C=C\[C@H]([C@@H](C)O)OCC1)[C@]25C)O[C@H]43`, the IC50 with BT-549 (Homo sapiens, BT-549, 72 h) was greater than 10000 nM; in the experiment on MDA-MB-231 (Homo sapiens, MDA-MB-231, 72 h), greater than 10000 nM; with HCC70 (Homo sapiens, HCC70, 72 h), greater than 10000 nM; with MDA-MB-468 (Homo sapiens, MDA-MB-468, 72 h), greater than 10000 nM.

As to `COC(=O)/C=C/C=C/[C@@H](OCC/C(C)=C/C(=O)OC[C@]12CCC(C)=C[C@H]1O[C@@H]1C[C@@H](O)[C@@]2(C)[C@@]12CO2)[C@@H](C)O`, the IC50 in the experiment with BT-549 (bt-549), in the experiment on MDA-MB-231 (mda-mb-231), with HCC70 (hcc70) and in the experiment on MDA-MB-468 (mda-mb-468) was greater than 10000 nM in each case.

In the case of `COc1cccc2c1C(=O)c1c(O)c3c(c(O)c1C2=O)C[C@@](O)(C(=O)CO)C[C@@H]3O[C@H]1C[C@H](N)[C@H](O)[C@H](C)O1` [DOXORUBICIN], the IC50 came out at 10 nM with BT-549 (Homo sapiens, BT-549, 72 h); 80 nM with MDA-MB-231 (Homo sapiens, MDA-MB-231, 72 h); 50 nM in the experiment on HCC70 (Homo sapiens, HCC70, 72 h); 70 nM with MDA-MB-468 (Homo sapiens, MDA-MB-468, 72 h).

Consider `COc1cc([C@@H]2c3cc4c(cc3[C@@H](O[C@@H]3O[C@@H]5CO[C@@H](C)O[C@H]5[C@H](O)[C@H]3O)[C@H]3COC(=O)[C@H]23)OCO4)cc(OC)c1O` [ETOPOSIDE], for which the IC50 with BT-549 (Homo sapiens, BT-549, 72 h) was found to be 1800 nM; with MDA-MB-231 (Homo sapiens, MDA-MB-231, 72 h), 2300 nM; in the experiment on HCC70 (Homo sapiens, HCC70, 72 h), 1800 nM; in the experiment with MDA-MB-468 (Homo sapiens, MDA-MB-468, 72 h), 2100 nM.

As for `CC1=C[C@H]2O[C@@H]3C[C@H]4OC(=O)/C=C\C=C\[C@H]([C@@H](C)O)OCC/C(C)=C/C(=O)OC[C@@]2(CC1)[C@]4(C)[C@]31CO1` [RORIDIN E], the IC50 is 0.02 nM in the experiment on BT-549 (bt-549), 0.03 nM with MDA-MB-231 (mda-mb-231), 0.02 nM with HCC70 (hcc70) and 0.05 nM with MDA-MB-468 (mda-mb-468).
